How the values were obtained:
Chymase = target: T1, Chymase (Homo sapiens, UniProt P23946); assay: Inhibitory activity against human heart chymase in vitro.
T1 sequence (P23946 whole entry): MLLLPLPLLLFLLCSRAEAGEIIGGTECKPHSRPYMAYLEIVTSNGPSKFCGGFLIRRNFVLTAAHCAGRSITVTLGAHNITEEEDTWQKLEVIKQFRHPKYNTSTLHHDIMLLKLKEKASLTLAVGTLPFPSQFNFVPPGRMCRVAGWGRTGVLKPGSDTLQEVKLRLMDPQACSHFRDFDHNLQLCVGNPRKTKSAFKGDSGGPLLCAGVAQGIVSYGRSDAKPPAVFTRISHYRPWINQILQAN

Cathepsin G = target: T2, Cathepsin G (Homo sapiens, UniProt P08311); assay: Inhibitory activity against human neutrophil cathepsin G.
T2 sequence (P08311 whole entry): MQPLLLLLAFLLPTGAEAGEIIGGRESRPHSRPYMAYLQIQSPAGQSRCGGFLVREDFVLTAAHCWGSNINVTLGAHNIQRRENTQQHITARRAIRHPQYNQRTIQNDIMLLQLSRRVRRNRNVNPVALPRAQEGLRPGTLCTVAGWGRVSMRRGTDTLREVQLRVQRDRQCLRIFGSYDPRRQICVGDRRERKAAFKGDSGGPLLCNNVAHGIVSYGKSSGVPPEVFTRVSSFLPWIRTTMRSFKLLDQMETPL

IC50 (Chymase) [µM] | IC50 (Cathepsin G) [µM] | SMILES
> 100 | – | O=c1n(S(=O)(=O)c2ccc(Cl)cc2)cc(O)n1-c1ccc(Cl)cc1 [1-(4-Chloro-benzenesulfonyl)-3-(4-chloro-phenyl)-imidazolidine-2,4-dione]
> 100 | > 100 | O=C(OCn1c(O)cn(-c2ccccc2)c1=O)c1ccccc1 [Benzoic acid 2,5-dioxo-3-phenyl-imidazolidin-1-ylmethyl ester]

— BindingDB's records for doi:10.1021/jm960793t (Suntory, 1997)
